Results taken from ChEMBL document CHEMBL1139270, “Design, synthesis, and biological evaluation of a scaffold for iGluR ligands based on the structure of (-)-kaitocephalin” (2009).
The source made the active and inactive calls. The rule behind the calls is not given here.

Test system: not listed separately
Assay: Antagonist activity at rat KA receptor expressed in Xenopus oocytes assessed as reduction of kainate-induced membrane current at 100 uM relative to kainate
Type: functional, Oocyte
Design: scale not given: the % may be the effect or the level left

SMILES	Activity [%]
Cc1cccc([C@H]2CC[C@](C(=O)O)([C@@H](O)[C@@H](N)C(=O)O)N2)c1	75
N[C@@H](C(=O)O)[C@H](O)[C@@]1(C(=O)O)CC[C@H](c2ccccc2)N1	72
Cc1ccc([C@H]2CC[C@](C(=O)O)([C@@H](O)[C@@H](N)C(=O)O)N2)cc1	83
Cc1ccccc1[C@H]1CC[C@](C(=O)O)([C@@H](O)[C@@H](N)C(=O)O)N1	49

Test system: Oocyte
Assay: Agonist activity at rat KA receptor expressed in Xenopus oocytes at 100 uM
Type: functional, cell-based

SMILES	Activity
Cc1cccc([C@H]2CC[C@](C(=O)O)([C@@H](O)[C@@H](N)C(=O)O)N2)c1	inactive
N[C@@H](C(=O)O)[C@H](O)[C@@]1(C(=O)O)CC[C@H](c2ccccc2)N1	inactive
Cc1ccc([C@H]2CC[C@](C(=O)O)([C@@H](O)[C@@H](N)C(=O)O)N2)cc1	inactive
Cc1ccccc1[C@H]1CC[C@](C(=O)O)([C@@H](O)[C@@H](N)C(=O)O)N1	inactive

Test system: Oocyte
Assay: Agonist activity at rat AMPA receptor expressed in Xenopus oocytes at 100 uM
Type: functional, cell-based

SMILES	Activity
Cc1cccc([C@H]2CC[C@](C(=O)O)([C@@H](O)[C@@H](N)C(=O)O)N2)c1	inactive
N[C@@H](C(=O)O)[C@H](O)[C@@]1(C(=O)O)CC[C@H](c2ccccc2)N1	inactive
Cc1ccc([C@H]2CC[C@](C(=O)O)([C@@H](O)[C@@H](N)C(=O)O)N2)cc1	inactive
Cc1ccccc1[C@H]1CC[C@](C(=O)O)([C@@H](O)[C@@H](N)C(=O)O)N1	inactive

Test system: not listed separately
Assay: Antagonist activity at rat AMPA receptor expressed in Xenopus oocytes assessed as reduction of kainate-induced membrane current at 100 uM relative to kainate
Type: functional, Oocyte
Design: scale not given: the % may be the effect or the level left

SMILES	Activity [%]
Cc1cccc([C@H]2CC[C@](C(=O)O)([C@@H](O)[C@@H](N)C(=O)O)N2)c1	75
N[C@@H](C(=O)O)[C@H](O)[C@@]1(C(=O)O)CC[C@H](c2ccccc2)N1	72
Cc1ccc([C@H]2CC[C@](C(=O)O)([C@@H](O)[C@@H](N)C(=O)O)N2)cc1	83
Cc1ccccc1[C@H]1CC[C@](C(=O)O)([C@@H](O)[C@@H](N)C(=O)O)N1	49
